Read-outs that look alike come from different tables or passages of the source.
Experiments:
Assay type in all cases: in vivo
[1] = system: Diabrotica balteata (Corn root worm); assay: Diabrotica balteata (Corn root worm), maize sprouts sprayed, L2 larvae mortality; conditions: 96 h, application rate of 200 ppm, L2 larvae on maize sprouts, assessed 4 days after infestation, read-out: control (mortality)
Method: Diabrotica balteata (Corn root worm):
Maize sprouts placed onto an agar layer in 24-well microtiter plates were treated with aqueous test solutions prepared from 10,000 ppm DMSO stock solutions by spraying. After drying, the plates were infested with L2 larvae (6 to 10 per well). The samples were assessed for mortality 4 days after infestation.

[2] = system: Euschistus heros (Neotropical Brown Stink Bug); assay: Euschistus heros (Neotropical Brown Stink Bug): Feeding/contact activity; conditions: 120 h, read-out: control (mortality)
Method: Euschistus heros (Neotropical Brown Stink Bug): Feeding/contact activity Soybean leaves on agar in 24-well microtiter plates were sprayed with aqueous test solutions prepared from 10,000 ppm DMSO stock solutions. After drying the leaves were infested with N2 nymphs. The samples were assessed for mortality 5 days after infestation.

[3] = system: Myzus persicae (Green peach aphid); assay: Myzus persicae (Green peach aphid): Feeding/Contact activity; conditions: foliar, 144 h, read-out: control (mortality)
Method: Myzus persicae (Green peach aphid): Feeding/Contact activity Sunflower leaf discs were placed onto agar in a 24-well microtiter plate and sprayed with aqueous test solutions prepared from 10,000 ppm DMSO stock solutions. After drying, the leaf discs were infested with an aphid population of mixed ages. The samples were assessed for mortality 6 days after infestation.

[4] = system: Plutella xylostella (Diamond back moth); assay: Plutella xylostella (Diamond back moth): Feeding/contact activity; conditions: 120 h, application rate of 200 ppm, L2 larvae on artificial diet, assessed 5 days after infestation, read-out: control (mortality)
Method: Plutella xylostella (Diamond back moth): Feeding/contact activity
24-well microtiter plates with artificial diet were treated with aqueous test solutions prepared from 10,000 ppm DMSO stock solutions by pipetting. After drying, the plates were infested with L2 larvae (10 to 15 per well). The samples were assessed for mortality 5 days after infestation.

[5] = system: Spodoptera littoralis (Egyptian cotton leaf worm); assay: Spodoptera littoralis (Egyptian cotton leaf worm): Feeding/contact activity; conditions: foliar, 72 h, read-out: control (mortality)
Method: Spodoptera littoralis (Egyptian cotton leaf worm): Feeding/contact activity Cotton leaf discs were placed onto agar in 24-well microtiter plates and sprayed with aqueous test solutions prepared from 10,000 ppm DMSO stock solutions. After drying the leaf discs were infested with five L1 larvae. The samples were assessed for mortality 3 days after infestation.

[6] = system: Tetranychus urticae (Two-spotted spider mite); assay: Tetranychus urticae (Two-spotted spider mite): Feeding/contact activity; conditions: foliar, 192 h, read-out: control (mortality)
Method: Tetranychus urticae (Two-spotted spider mite): Feeding/contact activity
Bean leaf discs on agar in 24-well microtiter plates were sprayed with aqueous test solutions prepared from 10,000 ppm DMSO stock solutions. After drying the leaf discs were infested with a mite population of mixed ages. The samples were assessed for mortality on mixed population (mobile stages) 8 days after infestation.

[7] = application rate of 200 ppm, N2 nymphs on soybean leaves, assessed 5 days after infestation
[8] = application rate of 200 ppm, aphid population of mixed ages on sunflower leaf discs, assessed 6 days after infestation
[9] = application rate of 200 ppm, L1 larvae on cotton leaf discs, assessed 3 days after infestation
[10] = application rate of 200 ppm, mite population of mixed ages (mobile stages) on bean leaf discs, assessed 8 days after infestation

Measured: mortality at 200 ppm

Cn1c(-n2cc(-c3ccc(Cl)c(C(=O)NC4(C#N)CC4)c3)cn2)ccc1C(F)(C(F)(F)F)C(F)(F)F [Compound 1, 2-chloro-N-(1-cyanocyclopropyl)-5-[1-[1-methyl-5-[1,2,2,2-tetrafluoro-1-(trifluoromethyl)ethyl]pyrrol-2-yl]pyrazol-4-yl]benzamide]
≥ 80%: [1] | [2]; [7] | [3]; [8] | [4] | [5]; [9] | [6]; [10]

Cn1c(C(F)(C(F)(F)F)C(F)(F)F)cc(Br)c1-n1cc(-c2ccc(Cl)c(C(=O)NC3CC3)c2)cn1 [Compound 3, 5-[1-[3-bromo-1-methyl-5-[1,2,2,2-tetrafluoro-1-(trifluoromethyl)ethyl]pyrrol-2-yl]pyrazol-4-yl]-2-chloro-N-cyclopropyl-benzamide]
≥ 80%: [1] | [2]; [7] | [4] | [5]; [9] | [6]; [10]

Cn1c(-c2cc(-c3ccc(Cl)c(C(=O)NC4(C#N)CC4)c3)on2)ccc1C(F)(C(F)(F)F)C(F)(F)F [Compound 5, 2-chloro-N-(1-cyanocyclopropyl)-5-[3-[1-methyl-5-[1,2,2,2-tetrafluoro-1-(trifluoromethyl)ethyl]pyrrol-2-yl]isoxazol-5-yl]benzamide]
≥ 80%: [1] | [2]; [7] | [4] | [5]; [9] | [6]; [10]

Cn1c(C(F)(C(F)(F)F)C(F)(F)F)cc([N+](=O)[O-])c1-n1cc(-c2ccc(Cl)c(C(=O)NC3(C#N)CC3)c2)cn1 [Compound 7, 2-chloro-N-(1-cyanocyclopropyl)-5-[1-[1-methyl-3-nitro-5-[1,2,2,2-tetrafluoro-1-(trifluoromethyl)ethyl]pyrrol-2-yl]pyrazol-4-yl]benzamide]
≥ 80%: [5]; [9]

N#CCn1c(C(F)(C(F)(F)F)C(F)(F)F)cc(Br)c1-n1cc(-c2ccc(Cl)c(C(=O)NC3(C#N)CC3)c2)cn1 [Compound 13, 5-[1-[3-bromo-1-(cyanomethyl)-5-[1,2,2,2-tetrafluoro-1-(trifluoromethyl)ethyl]pyrrol-2-yl]pyrazol-4-yl]-2-chloro-N-(1-cyanocyclopropyl)benzamide]
≥ 80%: [1] | [2]; [7] | [4] | [5]; [9] | [6]; [10]

Cn1c(Br)c(Br)c(Br)c1-n1cc(-c2ccc(Cl)c(C(=O)NC3(C#N)CC3)c2)cn1 [Compound 15, 2-chloro-N-(1-cyanocyclopropyl)-5-[1-(3,4,5-tribromo-1-methyl-pyrrol-2-yl)pyrazol-4-yl]benzamide]
≥ 80%: [1] | [4] | [5]; [9]

Cn1c(C(F)(F)C(F)(F)F)cc(Br)c1-n1cc(-c2ccc(Cl)c(C(=O)NC3(C#N)CC3)c2)cn1 [Compound 31, 5-[1-[3-bromo-1-methyl-5-(1,1,2,2,2-pentafluoroethyl)pyrrol-2-yl]pyrazol-4-yl]-2-chloro-N-(1-cyanocyclopropyl)benzamide]
≥ 80%: [1] | [2]; [7] | [3]; [8] | [6]; [10]

Cn1c(SC(F)(F)F)cc(Cl)c1-n1cc(-c2ccc(Cl)c(C(=O)NC3(C#N)CC3)c2)cn1 [Compound 32, 2-chloro-5-[1-[3-chloro-1-methyl-5-(trifluoromethylsulfanyl)pyrrol-2-yl]pyrazol-4-yl]-N-(1-cyanocyclopropyl)benzamide]
≥ 80%: [1] | [2]; [7] | [3]; [8] | [5]; [9] | [6]; [10]

CC(=O)N(C(=O)c1cc(-c2cnn(-c3ccc(C(F)(C(F)(F)F)C(F)(F)F)n3C3CC3)c2)ccc1Cl)C(C)(C)C#N [Compound 35, N-acetyl-2-chloro-N-(1-cyano-1-methyl-ethyl)-5-[1-[1-cyclopropyl-5-[1,2,2,2-tetrafluoro-1-(trifluoromethyl)ethyl]pyrrol-2-yl]pyrazol-4-yl]benzamide]
≥ 80%: [2]; [7] | [3]; [8] | [5]; [9] | [6]; [10]

CC(=O)N(C(=O)c1cc(-c2cnn(-c3ccc(C(F)(C(F)(F)F)C(F)(F)F)n3C3CC3)c2)ccc1Cl)C1(C#N)CC1 [Compound 36, N-acetyl-2-chloro-N-(1-cyanocyclopropyl)-5-[1-[1-cyclopropyl-5-[1,2,2,2-tetrafluoro-1-(trifluoromethyl)ethyl]pyrrol-2-yl]pyrazol-4-yl]benzamide]
≥ 80%: [2]; [7] | [3]; [8] | [4] | [5]; [9] | [6]; [10]

CC(C)(C#N)NC(=O)c1cc(-c2cnn(-c3ccc(C(F)(C(F)(F)F)C(F)(F)F)n3C3CC3)c2)ccc1Cl [Compound 37, 2-chloro-N-(1-cyano-1-methyl-ethyl)-5-[1-[1-cyclopropyl-5-[1,2,2,2-tetrafluoro-1-(trifluoromethyl)ethyl]pyrrol-2-yl]pyrazol-4-yl]benzamide]
≥ 80%: [2]; [7] | [3]; [8] | [4] | [5]; [9] | [6]; [10]

CN(C(=O)c1cc(-c2cnn(-c3ccc(C(F)(C(F)(F)F)C(F)(F)F)n3C3CC3)c2)ccc1Cl)C1(C#N)CC1 [Compound 38, 2-chloro-N-(1-cyanocyclopropyl)-5-[1-[1-cyclopropyl-5-[1,2,2,2-tetrafluoro-1-(trifluoromethyl)ethyl]pyrrol-2-yl]pyrazol-4-yl]-N-methyl-benzamide]
≥ 80%: [2]; [7] | [3]; [8] | [4] | [5]; [9] | [6]; [10]

COC(=O)N(C(=O)c1cc(-c2cnn(-c3ccc(C(F)(C(F)(F)F)C(F)(F)F)n3C3CC3)c2)ccc1Cl)C1(C#N)CC1 [Compound 39, methyl N-[2-chloro-5-[1-[1-cyclopropyl-5-[1,2,2,2-tetrafluoro-1-(trifluoromethyl)ethyl]pyrrol-2-yl]pyrazol-4-yl]benzoyl]-N-(1-cyanocyclopropyl)carbamate]
≥ 80%: [2]; in Glycine max | [3] | [5] | [6]

N#CC1(NC(=O)c2cc(-c3cnn(-c4ccc(C(F)(C(F)(F)F)C(F)(F)F)n4C4CC4)c3)ccc2Cl)CC1 [Compound 40, 2-chloro-N-(1-cyanocyclopropyl)-5-[1-[1-cyclopropyl-5-[1,2,2,2-tetrafluoro-1-(trifluoromethyl)ethyl]pyrrol-2-yl]pyrazol-4-yl]benzamide]
≥ 80%: [2]; [7] | [4] | [5]; [9] | [6]; [10]

N#CC1(NC(=O)c2cc(-c3cnn(-c4c(Br)c(Br)c(SC(F)(F)F)n4C4CC4)c3)ccc2Cl)CC1 [Compound 41, 2-chloro-N-(1-cyanocyclopropyl)-5-[1-[3,4-dibromo-1-cyclopropyl-5-(trifluoromethylsulfanyl)pyrrol-2-yl]pyrazol-4-yl]benzamide]
≥ 80%: [1] | [2]; [7] | [4] | [5]; [9] | [6]; [10]

Source: patent US11459318B2, “Pesticidally active pyrrole derivatives” (Syngenta Participations AG, priority 2017, dated 2022)
